In US12239719B2, “Fluorochemical targeted therapies” (MT RESEARCH, LLC, priority 2016, dated 2025):

Assays:
[1] = test system: metastatic pulmonary osteosarcoma; experiment: Aerosol treatment of dog with metastatic pulmonary osteosarcoma; assay type: in vivo; settings: control dogs (n=50), gemcitabine alone
Protocol: A dog with extensive metastatic pulmonary osteosarcoma was treated with 60% perflubron emulsion (PFCE) containing 9 mg/mL gemcitabine (GCB) (PFCE-GCB=1000 mg GCB in 110 mL 60% perflubron emulsion). Aerosolized PFCE-GCB was delivered to the lungs of the dog twice weekly using an AeroTech™ II nebulizer (Biodex Medical Systems, Inc., Shirley, NY).
Treatment was discontinued at 6 months.
Control dogs (n=50) received gemcitabine alone.

[2] = oral (drink); cited from earlier work

| Compound | durable tumor eradication [1] | fraction absorbed [2] [%] |
| --- | --- | --- |
| Nc1ccn([C@@H]2O[C@H](CO)[C@@H](O)C2(F)F)c(=O)n1 [gemcitabine] | tumors returned in all control cases |  |
| COC(=O)c1ccc2c(c1)NC(=O)/C2=C(\Nc1ccc(N(C)C(=O)CN2CCN(C)CC2)cc1)c1ccccc1 [nintedanib] |  | 5 |
